# Marks after values point to notes of the source that are not given here.
# Tests used:
# Format in all cases: in vivo
# [1] = tested on: goosegrass (Eleusine indica); test: Glasshouse trial, control of goosegrass, spray applied pre-emergence (Example 1); details: for Actual weed control, Plus Mesotrione at 100 g ai/ha: X-77 0.1% v/v
# Protocol: (§1) In the following tests, herbicides were applied at reduced field rates because herbicide effects are magnified in a glasshouse environment. The rates tested were selected to give between about 50 and 70% control with herbicides applied alone, so that any synergistic effect could be readily detected when testing mixtures. A glasshouse trial was carried out. Goosegrass seeds were sown into standard glasshouse potting mix (1:1 v/v Promix:Vero sand soil) contained in 10 cm square plastic pots. Treatments were replicated three times. Mesotrione (in the form Callisto® 480SE) was applied pre-emergence to goosegrass (Eleusine indica) at 100 g ai/ha with or without pendimethalin (in the form Prowl® H2O). When used, pendimethalin was applied at a rate of 140 g ai/ha or 280 g ai/ha. The adjuvant system was X-77 at 0.1% v/v in deionised water. 200 litres of herbicide/adjuvant system was used per hectare. General weed control was evaluated at 7 and 14 days after treatment (DAT). It is noted that all herbicides were applied at reduced field rates because herbicide effects are magnified in a glasshouse environment. Rates were chosen to give a 50 to 70% level of control with herbicides applied alone as this allows for detection of any synergistic effect when tank mixtures are used. The results were evaluated using the Colby formula. The expected result for (A+B) is (A+B)−(A×B/100) where A and B are the ‘observed’ results for A and B on their own.
# [2] = tested on: goosegrass (Eleusine indica); test: Glasshouse trial, control of goosegrass, granules applied pre-emergence (Example 2)
# Protocol: as §1, with “A” for “In the following tests, herbicides were applied at reduced field rates because herbicide effects are magnified in a glasshouse environment. The rates tested were selected to give between about 50 and 70% control with herbicides applied alone, so that any synergistic effect could be readily detected when testing mixtures. A”, “own. […] A glasshouse trial was carried out as described in Example 1, except that the herbicides were applied in the form of granules. Mesotrione granules were made by spraying a mesotrione millbase (28% SC formulation) onto a granular carrier, Agsorb LVM-GA 24/48. Pendimethalin granules were made by adding Prowl® 3.3EC (37.4%) and Agsorb LVM-GA 24/48 granules into a tumbler, followed by spraying with a binder, HiSil 233. For testing mixtures of mesotrione and pendimethalin, the appropriate number of granules for each herbicide were weighed and thoroughly mixed. […]” for “own.”
# [3] = tested on: white clover (Trifolium repens); test: Glasshouse trial, control of white clover, granules applied post-emergence (Example 4); details: pendimethalin granules 1120 g ai/ha + mesotrione granules 200 g ai/ha
# Protocol: 200 litres of herbicide/adjuvant system was used per hectare. General weed control was evaluated at 7 and 14 days after treatment (DAT). It is noted that all herbicides were applied at reduced field rates because herbicide effects are magnified in a glasshouse environment. Rates were chosen to give a 50 to 70% level of control with herbicides applied alone as this allows for detection of any synergistic effect when tank mixtures are used. The results were evaluated using the Colby formula. The expected result for (A+B) is (A+B)−(A×B/100) where A and B are the ‘observed’ results for A and B on their own. […] A glasshouse trial was carried out as described in Example 1, except that the herbicides were applied in the form of granules. Mesotrione granules were made by spraying a mesotrione millbase (28% SC formulation) onto a granular carrier, Agsorb LVM-GA 24/48. Pendimethalin granules were made by adding Prowl® 3.3EC (37.4%) and Agsorb LVM-GA 24/48 granules into a tumbler, followed by spraying with a binder, HiSil 233. For testing mixtures of mesotrione and pendimethalin, the appropriate number of granules for each herbicide were weighed and thoroughly mixed. Granules were weighed for each individual pot using an amount equivalent to the rates listed in Table 2, and, based on a pot surface area of 10 cm^2, were carefully hand sprinkled on the emerged plants and pot surface. […]
# [4] = pendimethalin granules 140 g ai/ha + mesotrione granules 100 g ai/ha
# [5] = pendimethalin granules 140 g ai/ha + mesotrione granules 200 g ai/ha
# [6] = pendimethalin granules 280 g ai/ha + mesotrione granules 100 g ai/ha
# [7] = pendimethalin granules 280 g ai/ha + mesotrione granules 200 g ai/ha
smiles,measurement,setting,value
"CCC(CC)Nc1c([N+](=O)[O-])cc(C)c(C)c1[N+](=O)[O-] [Pendimethalin, N-(1-ethylpropyl)-3,4-dimethyl-2,6-dinitrobenzenamine]","Expected weed control (Colby formula), Plus Mesotrione at 100 g ai/ha",[1]; pendimethalin 140 g ai/ha + mesotrione 100 g ai/ha,22%
same,"Expected weed control (Colby formula), Plus Mesotrione at 100 g ai/ha",[1]; pendimethalin 280 g ai/ha + mesotrione 100 g ai/ha,22%
same,"Actual weed control, Plus Mesotrione at 100 g ai/ha",[1]; pendimethalin (Prowl H2O) 140 g ai/ha + mesotrione (Callisto 480SE) 100 g ai/ha,35* %
same,"Actual weed control, Plus Mesotrione at 100 g ai/ha",[1]; pendimethalin (Prowl H2O) 280 g ai/ha + mesotrione (Callisto 480SE) 100 g ai/ha,37* %
same,"Actual weed control, Plus Mesotrione at 100 g ai/ha",[2]; [4],67* %
same,"Expected weed control (Colby formula), Plus Mesotrione at 100 g ai/ha",[2]; [4],48%
same,"Actual weed control, Plus Mesotrione at 200 g ai/ha",[2]; [5],95* %
same,"Expected weed control (Colby formula), Plus Mesotrione at 200 g ai/ha",[2]; [5],80%
same,"Actual weed control, Plus Mesotrione at 100 g ai/ha",[2]; [6],87* %
same,"Expected weed control (Colby formula), Plus Mesotrione at 100 g ai/ha",[2]; [6],49%
same,"Actual weed control, Plus Mesotrione at 200 g ai/ha",[2]; [7],100* %
same,"Expected weed control (Colby formula), Plus Mesotrione at 200 g ai/ha",[2]; [7],80%
same,"Actual weed control, Plus Mesotrione at 200 g ai/ha",[3],93* %
same,"Expected weed control (Colby formula), Plus Mesotrione at 200 g ai/ha",[3],76%

# — patent US20100210464A1, “HERBICIDAL COMPOSITION AND METHOD OF USE THEREOF” (SYNGENTA CROP PROTECTION, INC., priority 2007, published 2010)
